Experimental data taken from US9833497B2, “Human originated EGF domain proteins and use of the same” (CHENGDU SOURCEBIO LIMITED-LIABILITY COMPANY, priority 2013, dated 2017).

Assays:
Type in all cases: cell-based
Citrobacter diversus = experiment: MIC against Gram-negative bacteria: Citrobacter diversus
In short: (§1)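 Growth inhibition by human EGF domain proteins was scored in LB liquid culture seeded at 5×10^5 CFU/mL. Protein was applied as a two-fold dilution series in triplicate, with shaking incubation at 37° C; MIC is the lowest concentration giving no growth.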

Proteus mirabilis = experiment: MIC against Gram-negative bacteria: Proteus mirabilis
In short: as §1

Enterobacter cloacae = experiment: MIC against Gram-negative bacteria: Enterobacter cloacae
In short: as §1

Moraxella catarrhalis = experiment: MIC against Gram-negative bacteria: Moraxella catarrhalis
In short: as §1

E. coli BL21 = experiment: MIC against Gram-negative bacteria: E. coli BL21
In short: as §1

Klebsiella pneumonia = experiment: MIC against Gram-negative bacteria: Klebsiella pneumonia
In short: as §1

Proteus vulgaris = experiment: MIC against Gram-negative bacteria: Proteus vulgaris
In short: as §1

Serratia marcescens = experiment: MIC against Gram-negative bacteria: Serratia marcescens
In short: as §1

Aeromonas hydrophila = experiment: MIC against Gram-negative bacteria: Aeromonas hydrophila
In short: as §1

E. coli DH5α = experiment: Antibacterial activity: MIC and growth curve against E. coli DH5α in 96-well plate; conditions: minimal inhibitory concentration against E. coli DH5α; 96-well plate, 5×10^5 CFU/mL, 37° C., judged after 8 h
In short: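 MIC taken as lowest protein level with no bacterial growth, tracked by A600 every 30 min during 37 °C, 175 rpm culture. Two-fold protein series 50-12.5 μg/mL final, triplicate wells, against 5×10^5 CFU/mL of LB-washed mid-log cells.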

Pseudomonas aeruginosa = experiment: MIC against Gram-negative bacteria: Pseudomonas aeruginosa
In short: as §1

[1] = 96-well plate, 5×10^5 CFU/mL, 37° C., 10 h
[2] = 10 h cultivation at 37° C., 5×10^5 CFU/mL, two-fold serial dilution
[3] = C. diversus, 10 h cultivation at 37° C., 5×10^5 CFU/mL
[4] = P. mirabilis, 10 h cultivation at 37° C., 5×10^5 CFU/mL
[5] = E. cloacae, 10 h cultivation at 37° C., 5×10^5 CFU/mL
[6] = M. catarrhalis, 10 h cultivation at 37° C., 5×10^5 CFU/mL
[7] = E. coli BL21, 10 h cultivation at 37° C., 5×10^5 CFU/mL
[8] = K. pneumonia, 10 h cultivation at 37° C., 5×10^5 CFU/mL
[9] = P. vulgaris, 10 h cultivation at 37° C., 5×10^5 CFU/mL
[10] = S. marcescens, 10 h cultivation at 37° C., 5×10^5 CFU/mL
[11] = A. hydrophila, 10 h cultivation at 37° C., 5×10^5 CFU/mL
[12] = P. aeruginosa, 10 h cultivation at 37° C., 5×10^5 CFU/mL

With “PRT532 (CWCSALGSYQMPCSSVTGQCECRPGVTGQRCDRCLSGAYDFPHCQGSSSACDP; listed as Homo sapiens)” the “MIC against C. diversus” value (Citrobacter diversus; [1]) was 12.5 µg/mL, the “MIC against P. mirabilis” value (Proteus mirabilis; [1]) was 12.5 µg/mL and the “MIC against E. cloacae” value (Enterobacter cloacae; [1]) was 12.5 µg/mL. For the same substance, the “MIC against M. catarrhalis” value (Moraxella catarrhalis; [1]) was 50 µg/mL, the “MIC against E. coli BL21” value (E. coli BL21; [1]) was 50 µg/mL and the “MIC against K. pneumonia” value (Klebsiella pneumonia; [1]) was 12.5 µg/mL. The “MIC against P. vulgaris” value (Proteus vulgaris; [1]) was 50 µg/mL, the “MIC against S. marcescens” value (Serratia marcescens; [1]) was 12.5 µg/mL and the “MIC against A. hydrophila” value (Aeromonas hydrophila; [1]) was 12.5 µg/mL. For the same substance, the MIC (E. coli DH5α) was 12.5 µg/mL and the “MIC against P. aeruginosa” value (Pseudomonas aeruginosa; [1]) was 12.5 µg/mL.
For “PRT637 (DIDECVNNTVCDSHGFCDNTAGSFRCLCYQGFQAPQDG; listed as Homo sapiens)”, the “MIC C. diversus” value (Citrobacter diversus; [1]) was 50 µg/mL, the “MIC P. mirabilis” value (Proteus mirabilis; [1]) was 12.5 µg/mL and the “MIC E. cloacae” value (Enterobacter cloacae; [1]) was 12.5 µg/mL. For the same substance, the “MIC M. catarrhalis” value (Moraxella catarrhalis; [1]) was 25 µg/mL, the “MIC E. coli BL21” value (E. coli BL21; [1]) was 12.5 µg/mL and the “MIC K. pneumonia” value (Klebsiella pneumonia; [1]) was 50 µg/mL. The “MIC P. vulgaris” value (Proteus vulgaris; [1]) was 25 µg/mL, the “MIC S. marcescens” value (Serratia marcescens; [1]) was 50 µg/mL and the “MIC A. hydrophila” value (Aeromonas hydrophila; [1]) was 25 µg/mL. The MIC (E. coli DH5α) was 25 µg/mL and the “MIC P. aeruginosa” value (Pseudomonas aeruginosa; [1]) was 25 µg/mL.
In the case of “PRT1204 (DIDECGTGRHSCANDTICFNLDGGYDCRCPHGKNCT; listed as Homo sapiens)”, the “MIC against C. diversus” value (Citrobacter diversus; Citrobacter diversus, 96-well plate, 5×10^5 CFU/mL, 37° C., 10 h) is reported as 25 µg/mL, the “MIC against P. mirabilis” value (Proteus mirabilis; Proteus mirabilis, 96-well plate, 5×10^5 CFU/mL, 37° C., 10 h) is reported as 12.5 µg/mL and the “MIC against E. cloacae” value (Enterobacter cloacae; Enterobacter cloacae, 96-well plate, 5×10^5 CFU/mL, 37° C., 10 h) is reported as 12.5 µg/mL. For the same substance, the “MIC against M. catarrhalis” value (Moraxella catarrhalis; Moraxella catarrhalis, 96-well plate, 5×10^5 CFU/mL, 37° C., 10 h) was 25 µg/mL, the “MIC against E. coli BL21” value (E. coli BL21; E. coli BL21, 96-well plate, 5×10^5 CFU/mL, 37° C., 10 h) was 25 µg/mL and the “MIC against K. pneumonia” value (Klebsiella pneumonia; Klebsiella pneumonia, 96-well plate, 5×10^5 CFU/mL, 37° C., 10 h) was 25 µg/mL. For the same substance, the “MIC against P. vulgaris” value (Proteus vulgaris; Proteus vulgaris, 96-well plate, 5×10^5 CFU/mL, 37° C., 10 h) was 50 µg/mL, the “MIC against S. marcescens” value (Serratia marcescens; Serratia marcescens, 96-well plate, 5×10^5 CFU/mL, 37° C., 10 h) was 25 µg/mL and the “MIC against A. hydrophila” value (Aeromonas hydrophila; Aeromonas hydrophila, 96-well plate, 5×10^5 CFU/mL, 37° C., 10 h) was 50 µg/mL. The MIC (E. coli DH5α) was 100 µg/mL and the “MIC against P. aeruginosa” value (Pseudomonas aeruginosa; Pseudomonas aeruginosa, 96-well plate, 5×10^5 CFU/mL, 37° C., 10 h) was 50 µg/mL.
In the case of “PRT1079 (DQCSLNNGGCSHNCSVAPGEGIVCSCPLGMELGPDNHTCQ; listed as Homo sapiens)”, the “MIC C. diversus” value (Citrobacter diversus; [2]) is reported as 50 µg/mL, the “MIC P. mirabilis” value (Proteus mirabilis; [2]) is reported as 50 µg/mL and the “MIC E. cloacae” value (Enterobacter cloacae; [2]) is reported as 50 µg/mL. For the same substance, the “MIC M. catarrhalis” value (Moraxella catarrhalis; [2]) was 12.5 µg/mL, the “MIC E. coli BL21” value (E. coli BL21; [2]) was 12.5 µg/mL and the “MIC K. pneumonia” value (Klebsiella pneumonia; [2]) was 12.5 µg/mL. For the same substance, the “MIC P. vulgaris” value (Proteus vulgaris; [2]) was 50 µg/mL, the “MIC S. marcescens” value (Serratia marcescens; [2]) was 12.5 µg/mL and the “MIC A. hydrophila” value (Aeromonas hydrophila; [2]) was 12.5 µg/mL. For the same substance, the MIC (E. coli DH5α) was 50 µg/mL and the “MIC P. aeruginosa” value (Pseudomonas aeruginosa; [2]) was 50 µg/mL.
For “PRT190 (ECPLNYCRNGGTCVVEKNGPMCRCRQGWKGNRC; listed as Homo sapiens)”, the “MIC (μg/mL) C. diversus” value (Citrobacter diversus; [3]) was 12.5 µg/mL, the “MIC (μg/mL) P. mirabilis” value (Proteus mirabilis; [4]) was 12.5 µg/mL and the “MIC (μg/mL) E. cloacae” value (Enterobacter cloacae; [5]) was 12.5 µg/mL. For the same substance, the “MIC (μg/mL) M. catarrhalis” value (Moraxella catarrhalis; [6]) was 12.5 µg/mL, the “MIC (μg/mL) E. coli BL21” value (E. coli BL21; [7]) was 25 µg/mL and the “MIC (μg/mL) K. pneumonia” value (Klebsiella pneumonia; [8]) was 25 µg/mL. The “MIC (μg/mL) P. vulgaris” value (Proteus vulgaris; [9]) was 12.5 µg/mL, the “MIC (μg/mL) S. marcescens” value (Serratia marcescens; [10]) was 12.5 µg/mL and the “MIC (μg/mL) A. hydrophila” value (Aeromonas hydrophila; [11]) was 25 µg/mL. The MIC (E. coli DH5α) was 12.5 µg/mL and the “MIC (μg/mL) P. aeruginosa” value (Pseudomonas aeruginosa; [12]) was 50 µg/mL.
In the case of “PRT1026 (NKETCEHNHRQCSRHAFCTDYATGFCCHCQSKFYGNGKHCL; listed as Homo sapiens)”, the MIC (Citrobacter diversus; C. diversus, 10 h cultivation at 37° C.) is reported as 12.5 µg/mL, the MIC (Proteus mirabilis; P. mirabilis, 10 h cultivation at 37° C.) is reported as 12.5 µg/mL and the MIC (Enterobacter cloacae; E. cloacae, 10 h cultivation at 37° C.) is reported as 12.5 µg/mL. The MIC (Moraxella catarrhalis; M. catarrhalis, 10 h cultivation at 37° C.) was 50 µg/mL, the MIC (E. coli BL21; E. coli BL21, 10 h cultivation at 37° C.) was 25 µg/mL and the MIC (Klebsiella pneumonia; K. pneumonia, 10 h cultivation at 37° C.) was 25 µg/mL. It also gave an MIC (Proteus vulgaris; P. vulgaris, 10 h cultivation at 37° C.) of 25 µg/mL, an MIC (Serratia marcescens; S. marcescens, 10 h cultivation at 37° C.) of 50 µg/mL and an MIC (Aeromonas hydrophila; A. hydrophila, 10 h cultivation at 37° C.) of 50 µg/mL. The MIC (E. coli DH5α) was 12.5 µg/mL and the MIC (Pseudomonas aeruginosa; P. aeruginosa, 10 h cultivation at 37° C.) was 50 µg/mL.
“PRT426 (DINECTSLSEPCRPGFSCINTVGSYTCQRNPLICARGYHASDDGTKCV; listed as Homo sapiens)” gave an MIC (Citrobacter diversus; [3]) of 12.5 µg/mL, an MIC (Proteus mirabilis; [4]) of 12.5 µg/mL and an MIC (Enterobacter cloacae; [5]) of 50 µg/mL. The MIC (Moraxella catarrhalis; [6]) was 12.5 µg/mL, the MIC (E. coli BL21; [7]) was 50 µg/mL and the MIC (Klebsiella pneumonia; [8]) was 50 µg/mL. It also gave an MIC (Proteus vulgaris; [9]) of 25 µg/mL, an MIC (Serratia marcescens; [10]) of 50 µg/mL and an MIC (Aeromonas hydrophila; [11]) of 12.5 µg/mL. For the same substance, the MIC (E. coli DH5α) was 12.5 µg/mL and the MIC (Pseudomonas aeruginosa; [12]) was 50 µg/mL.
